Data reported in patent publication US20110039693A1, “Pyrimidylmethyl Sulfonamide Compounds” (BASF SE, priority 2008, published 2011).
Where two headings read alike, the source gives them in different places.

Experiments:
[1] = system: Pyrenophora teres; experiment: Synergistic mixture microtiter test: Pyrenophora teres; assay type: cell-based; conditions: single compound
[2] = system: Puccinia recondita; experiment: Synergistic mixture glasshouse trial: preventative control of brown rust caused by Puccinia recondita; assay type: in vivo; conditions: single compound, wheat, untreated control 80% diseased leaf area
Procedure: The spray solutions were prepared in several steps: The stock solution were prepared: a mixture of acetone and/or dimethylsulfoxide and the wetting agent/emulsifier Wettol, which is based on ethoxylated alkylphenoles, in a relation (volume) solvent-emulsifier of 99 to 1 was added to 25 mg of the compound to give a total of 10 ml. Water was then added to total volume of 100 ml. This stock solution was diluted with the described solvent-emulsifier-water mixture to the given concentration.
The first two developed leaves of pot-grown wheat seedling were sprayed to run-off with an aqueous suspension, containing the concentration of active ingredient or their mixture as described below. The next day the plants were inoculated with spores of Puccinia recondita. To ensure the success the artificial inoculation, the plants were transferred to a humid chamber without light and a relative humidity of 95 to 99% and 20 to 22° C. for 24 h. Then the trial plants were cultivated for 6 days in a greenhouse chamber at 22-26° C. and a relative humidity between 65 and 70%. The extent of fungal attack on the leaves was visually assessed as % diseased leaf area.
The percentages diseased leaf area were converted into efficacies. An efficacy of 0 means that the infection level of the treated plants corresponds to that of the untreated control plants; an efficacy of 100 means that the treated plants were not infected.
The expected efficacies of active compound mixtures were determined using Colby's formula as described earlier herein.

[3] = system: Septoria tritici; experiment: Synergistic mixture microtiter test: leaf blotch on wheat caused by Septoria tritici; assay type: cell-based; conditions: single compound
[4] = system: Alternaria solani; experiment: Synergistic mixture microtiter test: Alternaria solani; assay type: cell-based; conditions: single compound
[5] = system: Phytophthora infestans; assay type: cell-based; conditions: single compound

For COc1nccc(CNS(=O)(=O)c2ccc(Oc3ncc(C(F)(F)F)cc3Cl)c(C)c2)n1 [Example I-17, 4-(3-chloro-5-trifluoromethyl-pyridin-2-yloxy)-N-(2-methoxy-pyrimidin-4-ylmethyl)-3-methyl-benzenesulfonamide], the melting point was 138 °C.

With O=C(Nc1ccccc1-c1ccc(Cl)cc1)c1cccnc1Cl [Boscalid, boscalid, reference compound] the “Observed efficacy (%)” value ([1]; 0.016 ppm) was 0%, the “Observed efficacy (%)” value ([1]; 0.25 ppm) was 63% and the “Observed efficacy (%)” value ([2]; 4 ppm) was 0%. For the same compound, the “Observed efficacy (%)” value ([2]; 16 ppm) was 0% and the “Observed efficacy (%)” value ([3]; 4 ppm) was 75%.

In the case of COC(=O)N(OC)c1ccccc1COc1ccn(-c2ccc(Cl)cc2)n1 [Pyraclostrobin, pyraclostrobin, reference compound], the “Observed efficacy (%)” value ([1]; 0.004 ppm) is reported as 0%, the “Observed efficacy (%)” value ([4]; 0.063 ppm) is reported as 48% and the “Observed efficacy (%)” value ([5]; 0.25 ppm) is reported as 38%. For the same compound, the “Observed efficacy (%)” value ([2]; 0.25 ppm) was 0% and the “Observed efficacy (%)” value ([3]; 0.063 ppm) was 74%.

For O=S(=O)(NCc1ccnc(C2CC2)n1)c1ccc(Oc2ncccc2C(F)(F)F)cc1 [Example I-27], the “Observed efficacy (%)” value ([1]; 4 ppm) was 26%, the “Observed efficacy (%)” value ([4]; 0.25 ppm) was 3% and the “Observed efficacy (%)” value ([4]; 4 ppm) was 0%. For the same compound, the “Observed efficacy (%)” value ([2]; 16 ppm) was 27% and the “Observed efficacy (%)” value ([3]; 4 ppm) was 27%.

In the case of CSc1nccc(CNS(=O)(=O)c2ccc(Oc3ncc(C(F)(F)F)cc3Cl)cc2)n1 [Example I-5], the “Observed efficacy (%)” value ([1]; 0.25 ppm) is reported as 0%, the “Observed efficacy (%)” value ([1]; 4 ppm) is reported as 21% and the “Observed efficacy (%)” value ([4]; 0.25 ppm) is reported as 2%. The “Observed efficacy (%)” value ([3]; 4 ppm) was 22%.

In the case of COc1cc(CNS(=O)(=O)c2ccc(Oc3ccc(C(F)(F)F)cn3)cc2)nc(OC)n1 [Example I-88], the “Observed efficacy (%)” value ([1]; 0.25 ppm) is reported as 16% and the “Observed efficacy (%)” value ([4]; 0.25 ppm) is reported as 4%.

For COc1cc(CNS(=O)(=O)c2ccc(Oc3ncc(C(F)(F)F)cc3Cl)cc2)nc(OC)n1 [Example I-118], the “Observed efficacy (%)” value ([4]; 0.25 ppm) was 1% and the “Observed efficacy (%)” value ([3]; 4 ppm) was 25%.

For CCOc1nccc(CNS(=O)(=O)c2ccc(Oc3ncccc3C(F)(F)F)cc2)n1 [Example I-52], the “Observed efficacy (%)” value ([4]; 0.25 ppm) was 0%, the “Observed efficacy (%)” value ([4]; 4 ppm) was 0% and the “Observed efficacy (%)” value ([5]; 16 ppm) was 53%. The “Observed efficacy (%)” value ([2]; 16 ppm) was 29% and the “Observed efficacy (%)” value ([3]; 4 ppm) was 29%.

In the case of CSc1ncc(F)c(CNS(=O)(=O)c2ccc(Oc3ccc(C(F)(F)F)cn3)cc2)n1 [Example I-72], the “Observed efficacy (%)” value ([1]; 4 ppm) is reported as 14%, the “Observed efficacy (%)” value ([4]; 0.25 ppm) is reported as 3% and the “Observed efficacy (%)” value ([2]; 4 ppm) is reported as 0%. The “Observed efficacy (%)” value ([2]; 16 ppm) was 0% and the “Observed efficacy (%)” value ([3]; 4 ppm) was 14%.

For COc1nccc(CNS(=O)(=O)c2ccc(OCc3cncc(C(F)(F)F)c3)cc2)n1 [Example I-125], the “Observed efficacy (%)” value ([4]; 0.25 ppm) was 4%, the “Observed efficacy (%)” value ([2]; 4 ppm) was 13% and the “Observed efficacy (%)” value ([3]; 4 ppm) was 23%.

In the case of COc1nccc(CNS(=O)(=O)c2ccc(Oc3ccc(C(F)(F)F)cn3)cc2C)n1 [Example I-22], the “Observed efficacy (%)” value ([1]; 0.016 ppm) is reported as 1% and the “Observed efficacy (%)” value ([4]; 0.25 ppm) is reported as 3%.

For Fc1ccc([C@]2(Cn3cncn3)O[C@H]2c2ccccc2Cl)cc1 (racemic) [Epoxiconazole, epoxiconazole, reference compound], the “Observed efficacy (%)” value ([1]; 0.25 ppm) was 8% and the “Observed efficacy (%)” value ([2]; 0.25 ppm) was 0%.
